According to US10329324B2 (viDA Therapeutics Inc., priority 2013, dated 2019):

These compounds were tested against T1, human Granzyme B (hGzmB) (Homo sapiens, UniProt P10144) (assay: Human Granzyme B enzymatic inhibition assay (fluorogenic, kinetic)). Settings: not given.
T1 construct: purchased Froelich Lab, Northshore University Health Systems Research Institute, Evanston, Ill., USA
Format: biochemical
Protocol: A specific 2× assay buffer was prepared for the enzyme to be tested (see Table 2 for final 1× assay buffer compositions). If the assay buffer included DTT, it was added immediately prior to running the assay. A 2× enzyme mix was prepared (see Table 3 for enzyme assay conditions) at 80 uL per well. Compounds were screened at one or two appropriate concentrations (to determine the percent inhibition at those concentrations) and/or a full dose response curve (typically 8 points, to identify the IC50) in duplicate, triplicate, or higher replicates as needed. An appropriate control was also assessed in full dose response, in duplicate for each assay/plate. Background control wells consisted of 1× assay buffer, DMSO (5% v/v) and substrate. Positive control wells consisted of enzyme, DMSO (5% v/v) and substrate. Test compounds and control compounds were diluted in DMSO to […] the final desired concentration. For example, a test compound may be tested in dose response, in serial, tripling dilution condition starting at 20 uM and ending at 9.1 nM (or any appropriate concentration range and dilution scheme). Control compounds were prepared similarly. Diluted compounds were prepared in a dilution plate and transferred to the reaction plate (96-well medium binding plate (Greiner Bio-One FLUOTRAC™)) to allow for the desired final concentrations when added to the enzyme with AB. After mixing, the reaction plate was placed on a shaker (at 300 RPM) for 5 min, followed by incubation (covered) on the bench, for 20 min. Plates were warmed to reaction temperature (see Table 3) for a total incubation time of 30 min. Plates so prepared were ready for addition of substrate and the subsequent reaction.
(§1) An appropriate substrate for each assay was prepared in advance at 2× the final desired concentration (see Table 2) in DMSO. The appropriate substrate mix was added to each appropriate well on the reaction plate, and the plate was read immediately in the TECAN plate reader (TECAN INFINITE® M1000 Pro), set to the correct wavelength as needed for each assay (see Table 3) using 25 cycles, kinetic interval of 1 min, number of reads per well of 20 with shaking set to 1 s, double orbital, 2 mm amplitude. For fluorescent assays the gain was set to optimal (50%).
An in vitro fluorogenic detection assay for assessing the IC50 and/or percent inhibition at a given concentration of inhibitors against human Granzyme B (hGzmB) enzyme was performed as described in Example D1. When appropriate, percent inhibition data was collected and fitted to generate IC50 data using GraphPad Prism 5 (GraphPad Software, La Jolla Calif. USA, www.graphpad.com) and its non-linear regression analysis tools or other equivalent tools. […]
as §1, with “5)” for “2)”, “assay buffer. 30 uL of the” for “DMSO. The”, “6)” for “3)”, “15” for “25”, “(100% with gain regulation) for all assays except human GzmB which was set to 85 (with the z set at 23000 um).” for “(50%).”
An in vitro fluorogenic detection assay for assessing the IC50 and/or percent inhibition at a given concentration of inhibitors against human Granzyme B (hGzmB) enzyme was performed as described in Example D5. When appropriate, percent inhibition data was collected and fitted to generate IC50 data using GraphPad Prism 5 (GraphPad Software, La Jolla Calif. USA, www.graphpad.com) and its non-linear regression analysis tools or other equivalent tools.

T1 sequence (P10144 21-247): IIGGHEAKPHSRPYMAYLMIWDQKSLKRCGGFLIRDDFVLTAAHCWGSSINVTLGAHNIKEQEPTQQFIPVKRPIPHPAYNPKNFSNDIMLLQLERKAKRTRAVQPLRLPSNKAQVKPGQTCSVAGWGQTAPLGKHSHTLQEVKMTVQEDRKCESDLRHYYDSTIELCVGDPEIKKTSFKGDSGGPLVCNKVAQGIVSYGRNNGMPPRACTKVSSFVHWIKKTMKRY

| SMILES | IC50 |
| --- | --- |
| CC[C@H](C)[C@H](NC(=O)[C@@H](N)CC(=O)O)C(=O)NCC(=O)N1c2ccccc2C[C@H]1C(=O)NCc1nn[nH]n1 [Example A37, (3S)-3-Amino-3-{[(1S,2S)-2-Methyl-1-({2-Oxo-2-[(2S)-2-[(2H-1,2,3,4-Tetrazol-5-Ylmethyl)Carbamoyl]-2,3-Dihydro-1H-Indol-1-Yl]Ethyl}Carbamoyl)Butyl]Carbamoyl}Propanoic Acid] | 100 to 1000 nM |
| CC[C@H](C)[C@H](NC(=O)[C@H](N)CC(=O)O)C(=O)NCC(=O)N1c2ccccc2C[C@H]1C(=O)NCc1nn[nH]n1 [Example A38, (3R)-3-Amino-3-{[(1S,2S)-2-Methyl-1-({2-Oxo-2-[(2S)-2-[(2H-1,2,3,4-Tetrazol-5-Ylmethyl)Carbamoyl]-2,3-Dihydro-1H-Indol-1-Yl]Ethyl}Carbamoyl)Butyl]Carbamoyl}Propanoic Acid] | 100 to 1000 nM |

Same assay, conditions: activity codes, Table 7; read-out: IC50 Activity Range

| SMILES | IC50 |
| --- | --- |
| CC[C@H](C)[C@H](NC(=O)C[C@H](N)C(=O)O)C(=O)NCC(=O)N1c2ccccc2C[C@H]1C(=O)NCc1nn[nH]n1 [Example A39, (2S)-2-Amino-3-{[(1S,2S)-2-Methyl-1-({2-Oxo-2-[(2S)-2-[(2H-1,2,3,4-Tetrazol-5-Ylmethyl)Carbamoyl]-2,3-Dihydro-1H-Indol-1-Yl]Ethyl}Carbamoyl)Butyl]Carbamoyl}Propanoic Acid] | 100 to 1000 nM |
| CC[C@H](C)[C@H](NC(=O)C[C@@H](N)C(=O)O)C(=O)NCC(=O)N1c2ccccc2C[C@H]1C(=O)NCc1nn[nH]n1 [Example A40, (2R)-2-Amino-3-{[(1S,2S)-2-Methyl-1-({2-Oxo-2-[(2S)-2-[(2H-1,2,3,4-Tetrazol-5-Ylmethyl)Carbamoyl]-2,3-Dihydro-1H-Indol-1-Yl]Ethyl}Carbamoyl)Butyl]Carbamoyl}Propanoic Acid] | 100 to 1000 nM |
| CC[C@@H](C)[C@H](NC(=O)Cc1ccccc1)C(=O)NCC(=O)N1c2ccccc2C[C@H]1C(=O)NCc1nn[nH]n1 [Example A42, (2S)-1-{2-[(2S,3R)-3-Methyl-2-(2-Phenylacetamido)Pentanamido]Acetyl}-N-(2H-1,2,3,4-Tetrazol-5-Ylmethyl)-2,3-Dihydro-1H-Indole-2-Carboxamide] | 1000 to 10000 nM |
| CC[C@H](C)[C@H](NC(=O)CCC(=O)OCCOC(=O)C(C)(C)C)C(=O)NCC(=O)N1c2ccccc2C[C@H]1C(=O)NCc1nn[nH]n1 [Example A47, 2-[(2,2-Dimethylpropanoyl)Oxy]Ethyl 3-{[(1S,2S)-2-Methyl-1-({2-Oxo-2-[(2S)-2-[(2H-1,2,3,4-Tetrazol-5-Ylmethyl)Carbamoyl]-2,3-Dihydro-1H-Indol-1-Yl]Ethyl}Carbamoyl)Butyl]Carbamoyl}Propanoate] | 100 to 1000 nM |
| CC[C@H](C)[C@H](NC(=O)C1C[C@@H]1C(=O)O)C(=O)NCC(=O)N1c2ccccc2C[C@H]1C(=O)NCc1nn[nH]n1 (stereo partly drawn) [Example A48, (1S,2S)-2-{[(1S,2S)-2-Methy-1-({2-Oxo-2-[(2S)-2-[(2H-1,2,3,4-Tetrazol-5-Ylmethyl)Carbamoyl]-2,3-Dihydro-1H-Indol-1-Yl]Ethyl}Carbamoyl)Butyl]Carbamoyl}Cyclopropane-1-Carboxylic Acid] | 1000 to 10000 nM |
| CC[C@H](C)[C@H](NC(=O)[C@H](C)c1ccccc1)C(=O)NCC(=O)N1c2ccccc2C[C@H]1C(=O)NCc1nn[nH]n1 [Example A49, (2S)-1-{2-[(2S,3S)-3-Methyl-2-[(2R)-2-Phenylpropanamido]Pentanamido]Acetyl}-N-(2H-1,2,3,4-Tetrazol-5-Ylmethyl)-2,3-Dihydro-1H-Indole-2-Carboxamide] | 100 to 1000 nM |
| CC[C@H](C)[C@H](NC(=O)[C@@H](C)c1ccccc1)C(=O)NCC(=O)N1c2ccccc2C[C@H]1C(=O)NCc1nn[nH]n1 [Example A50, (2S)-1-{2-[(2S,3S)-3-Methyl-2-[(2S)-2-Phenylpropanamido]Pentanamido]Acetyl}-N-(2H-1,2,3,4-Tetrazol-5-Ylmethyl)-2,3-Dihydro-1H-Indole-2-Carboxamide] | 100 to 1000 nM |
| CC[C@H](C)[C@H](NC(=O)CCC(C(=O)O)c1ccccc1)C(=O)NCC(=O)N1c2ccccc2C[C@H]1C(=O)NCc1nn[nH]n1 (stereo partly drawn) [Example A51, 4-{[(1S,2S)-2-Methyl-1-({2-Oxo-2-[(2S)-2-[(2H-1,2,3,4-Tetrazol-5-Ylmethyl)Carbamoyl]-2,3-Dihydro-1H-Indol-1-Yl]Ethyl}Carbamoyl)Butyl]Carbamoyl}-2-Phenylbutanoic Acid] | < 100 nM |
| CC[C@H](C)[C@H](NC(=O)Cc1ccccc1)C(=O)NCC(=O)N1c2ccccc2C[C@H]1C(=O)NC(C)c1nn[nH]n1 (stereo partly shown) [Example B3] | 1000 to 10000 nM |
| CC[C@H](C)[C@H](NC(=O)Cc1ccccc1)C(=O)NCC(=O)N1c2cc(OC)ccc2CC1C(=O)NCc1c[nH]nn1 (stereo partly drawn) [Example B6, 6-Methoxy-1-{2-[(2S,3S)-3-Methyl-2-(2-Phenylacetamido)Pentanamido]Acetyl}-N-(1H-1,2,3-Triazol-5-Ylmethyl)-2,3-Dihydro-1H-Indole-2-Carboxamide] | 1000 to 10000 nM |
| CC(C)(C)OC[C@H](NC(=O)Cc1ccccc1)C(=O)NCC(=O)N1c2ccccc2C[C@H]1C(=O)NCc1nn[nH]n1 [Example C8, (2S)-1-{2-[(2S)-3-(Tert-Butoxy)-2-(2-Phenylacetamido)Propanamido]Acetyl}-N-(2H-1,2,3,4-Tetrazol-5-Ylmethyl)-2,3-Dihydro-1H-Indole-2-Carboxamide] | > 10000 nM |

Now from value to compound:

| IC50 | SMILES |
| --- | --- |
| > 10000 nM | C[C@@H](O)[C@H](NC(=O)Cc1ccccc1)C(=O)NCC(=O)N1c2ccccc2C[C@H]1C(=O)NCc1nn[nH]n1 [Example C2, (2S)-1-{2-[(2S,3R)-3-Hydroxy-2-(2-Phenylacetamido)Butanamido]Acetyl}-N-(2H-1,2,3,4-Tetrazol-5-Ylmethyl)-2,3-Dihydro-1H-Indole-2-Carboxamide] |
| > 10000 nM | C[C@H](O)[C@H](NC(=O)Cc1ccccc1)C(=O)NCC(=O)N1c2ccccc2C[C@H]1C(=O)NCc1nn[nH]n1 [Example C3, (2S)-1-{2-[(2S,3S)-3-Hydroxy-2-(2-Phenylacetamido)Butanamido]Acetyl}-N-(2H-1,2,3,4-Tetrazol-5-Ylmethyl)-2,3-Dihydro-1H-Indole-2-Carboxamide] |
| 1000 to 10000 nM | CC(C)C[C@H](NC(=O)Cc1ccccc1)C(=O)NCC(=O)N1c2ccccc2C[C@H]1C(=O)NCc1nn[nH]n1 [Example C4, (2S)-1-{2-[(2S)-4-Methyl-2-(2-Phenylacetamido)Pentanamido]Acetyl}-N-(2H-1,2,3,4-Tetrazol-5-Ylmethyl)-2,3-Dihydro-1H-Indole-2-Carboxamide] |
| 1000 to 10000 nM | CCC[C@H](NC(=O)Cc1ccccc1)C(=O)NCC(=O)N1c2ccccc2C[C@H]1C(=O)NCc1nn[nH]n1 [Example C5, (2S)-1-{2-[(2S)-2-(2-Phenylacetamido)Pentanamido]Acetyl}-N-(2H-1,2,3,4-Tetrazol-5-Ylmethyl)-2,3-Dihydro-1H-Indole-2-Carboxamide] |
| 1000 to 10000 nM | CC(C)(C)[C@H](NC(=O)Cc1ccccc1)C(=O)NCC(=O)N1c2ccccc2C[C@H]1C(=O)NCc1nn[nH]n1 [Example C6, (2S)-1-{2-[(2S)-3,3-Dimethyl-2-(2-Phenylacetamido)Butanamido]Acetyl}-N-(2H-1,2,3,4-Tetrazol-5-Ylmethyl)-2,3-Dihydro-1H-Indole-2-Carboxamide] |
| 1000 to 10000 nM | CO[C@H](C)[C@H](NC(=O)Cc1ccccc1)C(=O)NCC(=O)N1c2ccccc2C[C@H]1C(=O)NCc1nn[nH]n1 [Example C7, (2S)-1-{2-[(2S,3R)-3-Methoxy-2-(2-Phenylacetamido)Butanamido]Acetyl}-N-(2H-1,2,3,4-Tetrazol-5-Ylmethyl)-2,3-Dihydro-1H-Indole-2-Carboxamide] |
